Patent US6316182A, “Detection of reverse transcriptase by DNA hybridization assay” (priority 1992, dated 2001)
pIC50: −log10 of the molar value. Where “and” joins values, the source holds several entries; their conditions need not be identical. Equal entries are not always repeated. Where two headings read alike, the source gives them in different places.

Assays:
[1] = system: HIV-1 reverse transcriptase with codon 215 and/or codon 219 substitution; details: phenylalanine or tyrosine for threonine at codon 215, and/or glutamine for lysine at codon 219; cited from earlier work
[2] = system: HIV-1 reverse transcriptase with valine for leucine at codon 74; details: valine for the wild-type leucine at codon 74; cited from earlier work
wild-type RT = target: T1, wild-type RT (Human immunodeficiency virus type 1 group M subtype B, UniProt P04585); assay: Heteropolymeric RNA template RT hybridization assay, inhibition of wild-type RT (Example 2); type: biochemical, HIV-1
T1 construct: Wild-type and mutant RT genes of these clones were subcloned into a bacterial expression vector (pKRT2); made in house; host or cells: E. coli
Protocol: (§1) A template RNA was synthesized by in vitro transcription from linearized pSP72 plasmid DNA by performing the following steps:
(§2) 2. In vitro transcription with T7 RNA polymerase was performed by 2 hour incubation at 37° C. of a solution containing 50 μg/mL of the linearized DNA, 400 units/mL T7 RNA polymerase, 40 mM Tris-HCl buffer, pH 8.0, 6 mM MgCl2, 2 mM spermidine, 10 mM NaCl, 10 mM DTT, 0.5 mM rATP, 0.5 mM rGTP, 0.5 mM rCTP and 0.5 mM rUTP.
(§3) The following DNA oligonucleotide was synthesized on a DNA synthesizer employing standard methods:
(§4) The following probe oligonucleotides were synthesized on a DNA synthesizer and conjugated with biotin or horseradish peroxidase (HRP) employing standard methods.
(§5) 1. 10 μL of 1 N KOH was added to each tube and incubated at 37° C. for 15 minutes to hydrolyze the RNA.
(§6) 2. 10 μL of 1 N KH2 PO4 was added to each tube to neutralize the pH and […] of solution from each tube was transferred to a well of a streptavidin-coated microplate.
(§7) 3. 50 μL of the following solution was added to each well:
(§8) 4. The wells were covered with an adhesive plate cover and incubated at 37° C. for 2 hours.
(§9) 6. 100 μL of tetramethylbenzidine (TMB, SOMA) was added to each well and incubated for 1 hour at room temperature.
(§10) 7. 100 μL of TMB Stop Solution (SOMA) was added to each well and the absorbance (450 nm-650 nm) of the wells was read with a plate reader.
(§11) In this example, RT was obtained from E. coli expression systems as described below and was added to each tube in sufficient amount to give a significant signal (about 1-2 absorbance units) in the absence of drug. The same amount of RT was added to each tube. Both a wild-type and a codon 74 (ddI-resistant) mutant RT were tested. Molecular clones were constructed by site-directed mutagenesis to contain a mutation at codon 74, 215, and/or 219. Mutants at codon 74 are resistant to ddI. Wild-type and mutant RT genes of these clones were subcloned into a bacterial expression vector (pKRT2). Bacterial lysates containing recombinant expressed RT, both wild-type and mutant, were made as previously described (D'Aquila, R. T. and Summers, W. C. (1989) JAIDS 2:579-587). The IC50 was determined by computerized estimation (Systat version 5.1) of the median-effect equation: fractional reduction=1/[1+(IC50/drug concentration)^m ]. Each IC50 is the mean of 5-10 experiments. Results of a one-tailed Mann-Whitney U test for the difference between mean wild-type and mutant IC50s: p<0.005.
(§12) An amount of ddATP (the active form of ddI) varying from 0.0005 to 0.250 mM was added to various tubes containing 40 μL of the following solution:
(§13) In this example, the dNTP concentrations were the same as described in Example 1 above.
(§14) These tubes were incubated at 37° C. for 1 hour to allow the synthesis of cDNA. […]

[3] = system: triple mutant RT (74/215/219); assay: Heteropolymeric RNA template RT hybridization assay, inhibition of triple mutant RT 74/215/219 (Example 2); type: biochemical, HIV-1; details: 74/215/219 mutant RT; single determinations; read-out: IC50 (multiple determinations)
Protocol: as §11, §12, §13, §14

AMV RT = assay: Heteropolymeric RNA template RT hybridization assay, inhibition of AMV RT (Example 3); type: biochemical, avian myeloblastosis virus; details: for Absorbance (450 nm-650 nm): no-drug absorbance 3.760
Protocol: as §5, §6, §7, §8, §9, §10
Same as described in Example 1 above.
AMV RT (Du Pont) was used as a model to illustrate use of the method of the present invention for detecting and/or quantitating the ability of a compound to inhibit RT activity. AMV RT was added to give tubes containing 40 μL of the following solution:
These reaction conditions were similar to those of Example 1 above except with respect to the addition of the inhibitor, the lower dNTP concentration (0.001 mM instead of 0.5 mM) and the increased amount of RT (200 mU instead of 5 mU). Reducing the dNTPs decreases the signal in the assay, but increasing the RT increases the signal. The reduced dNTP concentration helps to make the assay more sensitive to inhibitors which act competitively with the dNTPs and, thus, less inhibitor is needed to achieve the effect. By adding more inhibitor, the same results can be obtained at higher dNTP concentrations.
The tubes were incubated at 37° C. for 1 hour to allow the synthesis of cDNA.
Same as for Example 1 described above.

[4] = target: T2, codon 74 (ddI-resistant) mutant RT (Human immunodeficiency virus type 1 group M subtype B, UniProt P04585, L661V); assay: Heteropolymeric RNA template RT hybridization assay, inhibition of codon 74 mutant RT (Example 2); type: biochemical, HIV-1
T2 construct: Wild-type and mutant RT genes of these clones were subcloned into a bacterial expression vector (pKRT2); made in house; host or cells: E. coli
Protocol: as §1, §2, §3, §4, §5, §6, §7, §8, §9, §10, §11, §12, §13, §14

**Q.** For `Cc1cn([C@H]2C[C@H](N=[N+]=[N-])[C@@H](CO)O2)c(=O)[nH]c1=O` [AZT, zidovudine], which “resistance of the RT to the drug” value [1] is on record?
**A.** Its value is “leads to resistance to AZT”.

**Q.** Which “resistance of the RT to the drug” value [2] does the source give for `O=c1[nH]cnc2c1ncn2[C@H]1CC[C@@H](CO)O1` [ddI] here?
**A.** The value was “leads to ddI resistance”.

**Q.** With `Nc1ncnc2c1ncn2[C@H]1CC[C@@H](COP(=O)(O)OP(=O)(O)OP(=O)(O)O)O1` [ddATP] as the molecule, how does the pIC50 (wild-type RT; 10 cases, 0.5 mM dNTPs, read-out: Maximum (IC50)) read?
**A.** The pIC50 was 5.06.

**Q.** What about the pIC50 (wild-type RT; 10 cases, 0.5 mM dNTPs, read-out: Minimum (IC50)) of the same molecule?
**A.** Its pIC50 is 5.51.

**Q.** What about the pIC50 (wild-type RT; mean of 10 cases, 0.5 mM dNTPs, wild-type vs mutant p<0.005, read-out: Mean (IC50)) of the same molecule?
**A.** Its pIC50 is 5.17.

**Q.** What about the pIC50 (wild-type RT; single determinations, read-out: IC50 (multiple determinations)) of the same molecule?
**A.** The pIC50 was 5.07 and 5.17 and 5.11 and 5.31 and 5.24.

**Q.** And the pIC50 [3]?
**A.** The pIC50 was 4.10.

**Q.** And the “Absorbance (450 nm-650 nm)” value (AMV RT; ddATP 0.0001 mM)?
**A.** The value was 3.593.

**Q.** What about the “Absorbance (450 nm-650 nm)” value (AMV RT; ddATP 0.00025 mM) of the same molecule?
**A.** The value was 2.984.

**Q.** What about the “Absorbance (450 nm-650 nm)” value (AMV RT; ddATP 0.0005 mM) of the same molecule?
**A.** Its value is 2.079.

**Q.** And the “Absorbance (450 nm-650 nm)” value (AMV RT; ddATP 0.0010 mM)?
**A.** Its value is 1.365.

**Q.** What about the “Absorbance (450 nm-650 nm)” value (AMV RT; ddATP 0.0025 mM) of the same molecule?
**A.** Its value is 0.350.

**Q.** And the “Absorbance (450 nm-650 nm)” value (AMV RT; ddATP 0.0050 mM)?
**A.** Its value is 0.197.

**Q.** And the “Absorbance (450 nm-650 nm)” value (AMV RT; ddATP 0.0100 mM)?
**A.** The value was 0.224.

**Q.** What about the pIC50 ([4]; 74 mutant RT, single determinations, read-out: IC50 (multiple determinations)) of the same molecule?
**A.** The pIC50 was 4.88 and 4.78 and 4.87.

**Q.** And the pIC50 ([4]; Mutant 74 RT, 5 cases, 0.5 mM dNTPs, read-out: Maximum (IC50))?
**A.** Its pIC50 is 4.53.

**Q.** What about the pIC50 ([4]; Mutant 74 RT, 5 cases, 0.5 mM dNTPs, read-out: Minimum (IC50)) of the same molecule?
**A.** Its pIC50 is 4.95.

**Q.** What about the pIC50 ([4]; Mutant 74 RT, mean of 5 cases, 0.5 mM dNTPs, wild-type vs mutant p<0.005, read-out: Mean (IC50)) of the same molecule?
**A.** Its pIC50 is 4.77.

**Q.** Which “inhibition detected and/or quantitated” value (AMV RT; similar experiment, non-nucleoside RT inhibitor) does the source give for `O=C(O)P(=O)(O)O` [fosgarnet] here?
**A.** Its value is “could also be detected and/or quantitated”.
